“And” between values parts separate entries of the source, which are not always exact repeats. Equal values may be shown once. Read-outs that look alike come from different tables or passages of the source.

The values below come from PMC5461367, “Neurologically Potent Molecules from Crataegus oxyacantha; Isolation, Anticholinesterase Inhibition, and Molecular Docking” (Frontiers in Pharmacology, 2017).

One assay deals with BChE (Homo sapiens, UniProt P06276). Description: biochemical. Conditions: for inhibition at 62.5 µg/mL / inhibition at 250 µg/mL: read-out: % BChE inhibition; for IC50: read-out: BChE IC50 (μM ± SEM). As for the experimental part:
(§1) This yellow compound is UV detectable and is quantified with the passage of time with and without the impact of inhibitor agent. Briefly, from each enzyme solution, 5 μl were added to wells of micro plate and 5 μl DTNB was added to it. The resultant mixture was incubated for 15 min at 30°C in water bath followed by addition of 5 μl substrate solution. […] Control contains all solutions except inhibitor. Change in absorbance was recorded along with reaction time. At the end, Enzymes and enzymes inhibitory activities by control and our test samples were calculated from the rate of absorption with change in time as (V = Δ Abs /Δ t) and Enzyme inhibition as; Percent Enzyme activity = 100 × V/VMax.
(§2) Where, VMax is enzyme activity in the absence of inhibitor agent.

Another assay has as its target AChE (Homo sapiens, UniProt P22303). The assay can be described thus: biochemical. The following applies: for inhibition at 62.5 µg/mL: 62.5 μg/ml; for inhibition at 250 µg/mL: 250 μg/ml; for IC50: read-out: AChE IC50 (μM ± SEM). The procedure: as §1, §2
A further assay relates to human brain based AChE. Conditions: ref Harvey, 1995; cited from earlier work.
Where [1] appears, read: ratio of IC50 values, footnote b not given.
Where [2] appears, read: ratio of IC50 values, footnote a not given.

BChE, sequence (P06276 29-602): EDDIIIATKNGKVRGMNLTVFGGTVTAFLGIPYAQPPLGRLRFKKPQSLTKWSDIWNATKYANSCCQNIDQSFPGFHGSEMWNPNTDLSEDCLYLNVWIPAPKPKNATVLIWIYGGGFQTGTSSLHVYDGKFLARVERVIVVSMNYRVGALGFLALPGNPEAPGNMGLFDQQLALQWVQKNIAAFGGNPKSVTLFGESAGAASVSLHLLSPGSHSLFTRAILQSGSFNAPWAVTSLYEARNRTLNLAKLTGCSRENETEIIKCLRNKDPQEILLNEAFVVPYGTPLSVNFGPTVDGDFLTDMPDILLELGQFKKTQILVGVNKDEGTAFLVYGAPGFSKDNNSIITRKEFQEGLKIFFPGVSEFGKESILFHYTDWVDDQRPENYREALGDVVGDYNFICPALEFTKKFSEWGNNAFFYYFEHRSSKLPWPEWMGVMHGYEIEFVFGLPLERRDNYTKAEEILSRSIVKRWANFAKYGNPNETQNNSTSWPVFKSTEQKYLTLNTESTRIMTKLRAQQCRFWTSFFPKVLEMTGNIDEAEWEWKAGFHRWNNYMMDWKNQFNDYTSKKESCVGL
AChE, sequence (P22303 32-614): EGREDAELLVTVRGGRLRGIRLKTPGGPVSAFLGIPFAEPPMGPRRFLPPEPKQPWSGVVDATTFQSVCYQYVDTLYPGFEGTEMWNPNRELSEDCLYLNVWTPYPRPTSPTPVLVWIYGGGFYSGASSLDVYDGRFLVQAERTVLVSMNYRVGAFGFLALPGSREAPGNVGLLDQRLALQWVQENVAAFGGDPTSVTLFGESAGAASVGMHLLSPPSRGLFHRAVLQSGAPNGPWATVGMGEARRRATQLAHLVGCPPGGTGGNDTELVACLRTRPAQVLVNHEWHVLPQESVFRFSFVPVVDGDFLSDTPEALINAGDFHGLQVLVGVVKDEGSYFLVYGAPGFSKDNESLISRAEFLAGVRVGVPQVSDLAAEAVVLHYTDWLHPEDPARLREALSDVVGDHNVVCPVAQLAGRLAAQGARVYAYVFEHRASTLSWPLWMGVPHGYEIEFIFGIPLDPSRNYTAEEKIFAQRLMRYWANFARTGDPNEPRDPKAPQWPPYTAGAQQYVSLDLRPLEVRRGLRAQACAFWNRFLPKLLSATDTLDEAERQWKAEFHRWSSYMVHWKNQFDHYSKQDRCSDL

Consider `COc1ccc(C(CO)OC)cc1OC` (stereo not shown) [Compound 1, 2-(3,4-Dimethoxyphenyl)-2-Methoxyethanol], for which the inhibition – broadly, the change of the read-out against control, counted positive when it falls – at 62.5 µg/mL stood at 84.3 ± 2.19% at BChE (62.5 μg/ml) and 89.7 ± 1.47% against AChE. Further, the inhibition at 250 µg/mL at BChE (250 μg/ml) is 90.7 ± 1.34%; against AChE, 97.3 ± 1.06%. In addition, at BChE (setting [1]), the BChE selectivity was determined as 9.62. Besides, the IC50 – broadly, the concentration that inhibits the measured activity by half – is 2.41 ± 0.09 µM at BChE and 23.2 ± 1.02 µM on AChE. In addition, the AChE selectivity at AChE (setting [2]) is listed as 0.10.

On to `COc1ccc2c3c1O[C@H]1C[C@@H](O)C=C[C@@]31CCN(C)C2` [Galantamine, reference compound], for which, at BChE, the inhibition at 62.5 µg/mL was found to be 87.8 ± 1.01% and the inhibition at 250 µg/mL is 95.3 ± 1.09%. The “lower potency against human brain based AChE as compared to RBCs variant” value with human brain based AChE is on record as 10 times.

Turning to `C=C(C)[C@@H]1CC[C@]2(C)CC[C@]3(C)[C@H](CC[C@@H]4[C@@]5(C)CC[C@H](O)C(C)(C)[C@@H]5CC[C@]43C)[C@@H]12` [Compound 4, Lupeol], the inhibition at 62.5 µg/mL came to 85.8 ± 1.5% on BChE (62.5 μg/ml) and 77.87 ± 0.26% against AChE. Further, the inhibition at 250 µg/mL was determined as 91.42 ± 0.43% on BChE (250 μg/ml) and 93.73 ± 0.78% on AChE. Further, the BChE selectivity at BChE (setting [1]) was 27.71. Further, the IC50 at BChE was found to be 1.31 ± 0.12 µM; at AChE, 36.3 ± 1.89 µM. Besides, the AChE selectivity at AChE (setting [2]) is on record as 0.04.

For `CCC(CCC(C)C1CCC2C3CC=C4CC(OC5OC(CO)C(O)C(O)C5O)CCC4(C)C3CCC12C)C(C)C` [Compound 3, β-Sitosterol-3-O-β-D-Glucopyranoside], the results for the inhibition at 62.5 µg/mL on BChE (62.5 μg/ml) and at AChE were 83.03 ± 0.35% and 87.9 ± 0.52%, respectively. For the same compound, the inhibition at 250 µg/mL came to 94.84 ± 0.3% on BChE (250 μg/ml) and 95.7 ± 1.6% on AChE. Besides, the BChE selectivity at BChE (setting [1]) is 0.47. Moreover, the IC50 came to 11.8 ± 0.93 µM at BChE and 5.22 ± 0.59 µM on AChE. Also, at AChE (setting [2]), the AChE selectivity was 2.26.

Take `O=c1cc(-c2ccccc2)oc2cc(O)cc(O)c12` [Compound 9, 5,7-Dihydroxyflavone]: the inhibition at 62.5 µg/mL at BChE (62.5 μg/ml) was determined as 80.9 ± 1.9%; against AChE, 81.2 ± 0.23%. Moreover, the inhibition at 250 µg/mL on BChE (250 μg/ml) is 85%; against AChE it was 93.67 ± 0.88%. In addition, on BChE (setting [1]), the BChE selectivity turned out to be 51.27. Further, the IC50 at BChE turned out to be 0.63 ± 0.06 µM; at AChE it was 32.3 ± 1.8 µM. For the same compound, at AChE (setting [2]), the AChE selectivity is 0.02.

Consider `COc1cc(C(=O)CCO)ccc1O` [Compound 2, 3-Hydroxy-1-(4-Hydroxy-3-Methoxyphenyl) Propan-1-One], for which the inhibition at 62.5 µg/mL was 87.6 ± 1.06% on BChE (62.5 μg/ml) and 83.74 ± 0.68% against AChE. Moreover, the inhibition at 250 µg/mL on BChE (250 μg/ml) turned out to be 95.76 ± 0.71%; at AChE it was 93.05 ± 0.75%. Also, the BChE selectivity on BChE (setting [1]) is 1.69. For the same compound, the IC50 on BChE turned out to be 15.4 ± 1.01 µM; at AChE, 25.9 ± 1.35 µM. The AChE selectivity at AChE (setting [2]) is given as 0.59.

In the case of `CC[C@H](CC[C@@H](C)[C@H]1CC[C@H]2[C@@H]3CC=C4C[C@@H](O)CC[C@]4(C)[C@H]3CC[C@]12C)C(C)C` [Compound 5, β-Sitosterol], on BChE, the BChE selectivity is listed as 26.62; the IC50 was 0.55 µM and 0.56 µM. For the same compound, at BChE (62.5 μg/ml), the inhibition at 62.5 µg/mL stood at 87.08 ± 0.47%. The inhibition at 250 µg/mL at BChE (250 μg/ml) was determined as 92.6 ± 1.12%. Moreover, at AChE, the AChE selectivity stood at 0.04, at 62.5 µg/mL the inhibition was 80%, the inhibition at 250 µg/mL was 91.33 ± 0.49% and the IC50 is 14.6 ± 0.85 µM.

On to `C=C(C)[C@@H]1CC[C@]2(CO)CC[C@]3(C)[C@H](CC[C@@H]4[C@@]5(C)CC[C@H](O)C(C)(C)[C@@H]5CC[C@]43C)[C@@H]12` [Compound 6, 3β, 28-Dihydroxylup-20(29)-ene], for which the inhibition at 62.5 µg/mL on BChE (62.5 μg/ml) turned out to be 82.5 ± 0.9%; against AChE, 84 ± 1.15%. Moreover, the inhibition at 250 µg/mL at BChE (250 μg/ml) was 95.8 ± 2.25%; at AChE it was 96.13 ± 0.2%. Further, on BChE (setting [1]), the BChE selectivity was 0.93. Moreover, the IC50 at BChE is 25.6 ± 1.25 µM; on AChE, 24 ± 1.1 µM. In addition, the AChE selectivity at AChE (setting [2]) came out at 1.06.

Consider `C=C(C)[C@@H]1CC[C@]2(C(=O)O)CC[C@]3(C)[C@H](CC[C@@H]4[C@@]5(C)CC[C@H](O)C(C)(C)[C@@H]5CC[C@]43C)[C@@H]12` [Compound 7, 3β-Dihydroxylup-20(29)-ene-28-oic Acid], for which the results for the inhibition at 62.5 µg/mL at BChE (62.5 μg/ml) and against AChE were 87.2 ± 1.28% and 77.7 ± 1.25%, respectively. In addition, the inhibition at 250 µg/mL at BChE (250 μg/ml) came out at 94.1 ± 0.6%; against AChE it was 95.7 ± 1.6%. The BChE selectivity at BChE (setting [1]) is recorded as 12.78. In addition, the IC50 on BChE is 3.48 ± 0.15 µM; on AChE it was 44.5 ± 1.73 µM. Moreover, the AChE selectivity at AChE (setting [2]) amounted to 0.07.
